The values that follow come from patent US12617779B2, “Self degradation-type CDK9 inhibitor prodrug and liposome encapsulating same” (Sumitomo Pharma Co., Ltd., priority 2021, dated 2026).

This data set can be described thus: Liposome encapsulation test, remote loading method (Experimental Example 4).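 On encapsulation efficiency: encapsulated compound as percent of compound amount introduced.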 The format is physicochemical. Particulars: for encapsulation rate, encapsulation efficiency and encapsulated compound content per 50 μmol of lipid: remote loading into liposomes. The procedure:
For Example 1, Example 2, Example 3, Example 4, Example 5, Example 6, Example 7, Example 8, Example 9, Example 10, Example 11, Example 12, Example 13, Example 14, Example 15, Example 16, Example 17 and Alvocidib, an encapsulation test in liposomes was performed using a remote loading method.
<Liposome Encapsulation Test of Example 1, Example 2, Example 5, Example 6, Example 9, Example 10, Example 11, Example 12, Example 13, Example 14, Example 15, and Example 16>
Hydrogenated soybean phosphatidylcholine (COATSOME NC-21E, manufactured by NOF CORPORATION, 7.77 g), cholesterol (manufactured by Sigma, 2.78 g) and distearoylphosphatidylethanolamine-methoxypolyethylene glycol 2000 (SUNBRIGHT DSPE-020CN, manufactured by NOF CORPORATION, 2.47 g) were dissolved in tert-butyl alcohol (720 mL) warmed to 65° C. The solution was placed in an eggplant flask and frozen in a dry ice-acetone bath, and then the tert-butyl alcohol was removed by evaporation under reduced pressure to give a lipid mixture.
To the above lipid mixture was added a 250 mM ammonium sulfate solution (240 mL), and the mixture was warmed to 65° C., and dispersed by a homogenizer (ULTRA-TURRAX, manufactured by IKA) to give a crude liposome dispersion. Then, the crude liposome dispersion was dispersed by a high pressure homogenizer (Nano-Mizer NM2, manufactured by YOSHIDA KIKAI CO., LTD.) at a pressure of 100 MPa to give liposomes with an average particle size (Z-average) of about 80 nm. The liposome outer solution was replaced with 10 mM L-histidine/10% sucrose solution (pH 6.5) using a dialysis cassette (Slide-A-Lyzer G2 Dialysis Cassettes 20K MWCO, manufactured by Thermo Scientific) to give an empty liposome solution. The solution was filtered through a 0.22 μm membrane filter, and a 10 mM L-histidine/10% sucrose solution (pH 6.5) was added thereto to adjust the total lipid concentration to 50 mM (50 μmol/mL). The lipid concentration was determined by quantitatively analyzing cholesterol using HPLC and calculating the total lipid concentration from the lipid mixing ratio. The amount for the above adjustment was increased or decreased as appropriate.
The compound (10 mg) was weighed, and the empty liposome solution (1 mL) with a total lipid concentration of 50 mM was added thereto. The solution was adjusted to pH 5 to 6 with 1 mol/L hydrochloric acid or 1 mol/L aqueous sodium hydroxide solution as necessary, warmed in a 65° C. water bath for 2 to 3 minutes, and ice-cooled. The mixture was centrifuged at 15,000×g for 5 minutes to precipitate and remove insoluble substances.
The liposome solution (100 μL) after removing insoluble substances was taken on an ultrafiltration filter (Amicon Ultra, 100K, 0.5 mL, manufactured by Merck) and centrifuged at 4° C., 15,000×g for 10 minutes. The compound concentrations in the liposome solution after removing insoluble substances and in the filtrate after ultrafiltration were determined by HPLC, and the encapsulation rate, encapsulation efficiency, and encapsulated compound content per 50 μmol of lipid were calculated by the following formula.
The measurement conditions for HPLC are as follows.
An empty liposome solution with a total lipid concentration of 75 mM was prepared by the same procedure as for the above example compound group. Each compound was weighed, and the empty liposome solution with a total lipid concentration of 75 mM was added thereto such that the compound concentration became 15 mg/mL. The solution was adjusted to pH 5 to 6 with 1 mol/L hydrochloric acid or 1 mol/L aqueous sodium hydroxide solution, warmed in a 65° C. water bath for 3 minutes, and ice-cooled. Hereafter, the encapsulation rate and encapsulation efficiency were calculated by the same procedure as for the above example compound group. The encapsulated compound content per 50 μmol of lipid was calculated by the following formula.
[formula] <Liposome Encapsulation Test of Example 7, Example 8 and Example 17> […]

Where [1] appears, read: Compound concentration when encapsulated 10 mg/mL.
Where [2] appears, read: Compound concentration when encapsulated 15 mg/mL.

Where a name gives a salt, the structure may show the parent alone.

Turning to `CCN(C[C@@H]1CCCCN1)C(=O)Oc1cc(O)c2c(=O)cc(-c3ccccc3Cl)oc2c1[C@H]1CCN(C)C[C@H]1O` [Example 1, 2-(2-chlorophenyl)-5-hydroxy-8-[(3S,4R)-3-hydroxy-1-methylpiperidin-4-yl]-4-oxo-4H-1-benzopyran-7-yl ethyl{[(2S)-piperidin-2-yl]methyl}carbamate ditrifluoroacetate], the “encapsulation rate, encapsulation efficiency and encapsulated compound content per 50 μmol of lipid” value (shortened to “encapsulation rate … per 50 μmol of lipid”) is “high”. In addition, under setting [1], the “Encapsulated compound content per 50 μmol of lipid” value turned out to be 7.3 mg, the Encapsulation efficiency worked out at 73.2% and the Encapsulation rate was determined as 82.9%.

Regarding `CCN(C[C@H]1CCCCN1)C(=O)Oc1cc(O)c2c(=O)cc(-c3ccccc3Cl)oc2c1[C@H]1CCN(C)C[C@H]1O` [Example 2, 2-(2-chlorophenyl)-5-hydroxy-8-[(3S,4R)-3-hydroxy-1-methylpiperidin-4-yl]-4-oxo-4H-1-benzopyran-7-yl ethyl{[(2R)-piperidin-2-yl]methyl}carbamate], the “encapsulation rate … per 50 μmol of lipid” value was “high”. For the same compound, under setting [1], the “Encapsulated compound content per 50 μmol of lipid” value is listed as 7.1 mg, the Encapsulation efficiency is given as 71.1% and the Encapsulation rate was found to be 81.1%.

Turning to `CN1CC[C@H](c2c(OC(=O)N(C)C[C@@H]3CCCCN3)cc(O)c3c(=O)cc(-c4ccccc4Cl)oc23)[C@H](O)C1` [Example 3, 2-(2-chlorophenyl)-5-hydroxy-8-[(3S,4R)-3-hydroxy-1-methylpiperidin-4-yl]-4-oxo-4H-1-benzopyran-7-yl methyl{[(2S)-piperidin-2-yl]methyl}carbamate], the “encapsulation rate … per 50 μmol of lipid” value was “high”. Besides, under setting [2], the “Encapsulated compound content per 50 μmol of lipid” value is recorded as 6.0 mg, the Encapsulation efficiency was 60.2% and the Encapsulation rate amounted to 61.0%.

With `CN1CC[C@H](c2c(OC(=O)N(C)C[C@H]3CCCCN3)cc(O)c3c(=O)cc(-c4ccccc4Cl)oc23)[C@H](O)C1` [Example 4, 2-(2-chlorophenyl)-5-hydroxy-8-[(3S,4R)-3-hydroxy-1-methylpiperidin-4-yl]-4-oxo-4H-1-benzopyran-7-yl methyl{[(2R)-piperidin-2-yl]methyl}carbamate], the “encapsulation rate … per 50 μmol of lipid” value is on record as “high”. Further, under setting [2], the “Encapsulated compound content per 50 μmol of lipid” value amounted to 7.1 mg, the Encapsulation efficiency came out at 71.2% and the Encapsulation rate is reported as 72.2%.

For `CCCN(C[C@@H]1CCCCN1)C(=O)Oc1cc(O)c2c(=O)cc(-c3ccccc3Cl)oc2c1[C@H]1CCN(C)C[C@H]1O` [Example 5, 2-(2-chlorophenyl)-5-hydroxy-8-[(3S,4R)-3-hydroxy-1-methylpiperidin-4-yl]-4-oxo-4H-1-benzopyran-7-yl {[(2S)-piperidin-2-yl]methyl}propylcarbamate], the “encapsulation rate … per 50 μmol of lipid” value is listed as “high”. Besides, under setting [1], the “Encapsulated compound content per 50 μmol of lipid” value came out at 7.2 mg, the Encapsulation efficiency is on record as 71.6% and the Encapsulation rate is reported as 75.7%.

`CCCN(C[C@H]1CCCCN1)C(=O)Oc1cc(O)c2c(=O)cc(-c3ccccc3Cl)oc2c1[C@H]1CCN(C)C[C@H]1O` [Example 6, 2-(2-chlorophenyl)-5-hydroxy-8-[(3S,4R)-3-hydroxy-1-methylpiperidin-4-yl]-4-oxo-4H-1-benzopyran-7-yl {[(2R)-piperidin-2-yl]methyl}propylcarbamate]: the “encapsulation rate … per 50 μmol of lipid” value is given as “high”. Under setting [1], the “Encapsulated compound content per 50 μmol of lipid” value is listed as 6.6 mg, the Encapsulation efficiency is given as 65.9% and the Encapsulation rate came out at 73.8%.

With `CCN(CC1CCCCN1)C(=O)Oc1cc(O)c2c(=O)cc(-c3ccccc3Cl)oc2c1[C@H]1CCN(C)C[C@H]1O` (stereo partly drawn) [Example 7, 2-(2-chlorophenyl)-5-hydroxy-8-[(3S,4R)-3-hydroxy-1-methylpiperidin-4-yl]-4-oxo-4H-1-benzopyran-7-yl ethyl[(piperidin-2-yl)methyl]carbamate dihydrochloride], the “encapsulation rate … per 50 μmol of lipid” value is “high”. Further, under setting [1], the “Encapsulated compound content per 50 μmol of lipid” value is 7.3 mg, the Encapsulation efficiency is given as 72.8% and the Encapsulation rate is given as 81.1%.

In the case of `CN1CC[C@H](c2c(OC(=O)N(C)CC3CCCCN3)cc(O)c3c(=O)cc(-c4ccccc4Cl)oc23)[C@H](O)C1` (stereo partly drawn) [Example 8, 2-(2-chlorophenyl)-5-hydroxy-8-[(3S,4R)-3-hydroxy-1-methylpiperidin-4-yl]-4-oxo-4H-1-benzopyran-7-yl methyl[(piperidin-2-yl)methyl]carbamate], the “encapsulation rate … per 50 μmol of lipid” value is “high”. Under setting [1], the “Encapsulated compound content per 50 μmol of lipid” value amounted to 6.1 mg, the Encapsulation efficiency is 61.1% and the Encapsulation rate was 60.6%.

In the case of `CCCN(CC1CCCCN1)C(=O)Oc1cc(O)c2c(=O)cc(-c3ccccc3Cl)oc2c1[C@H]1CCN(C)C[C@H]1O` (stereo partly drawn) [Example 9, 2-(2-chlorophenyl)-5-hydroxy-8-[(3S,4R)-3-hydroxy-1-methylpiperidin-4-yl]-4-oxo-4H-1-benzopyran-7-yl [(piperidin-2-yl)methyl]propylcarbamate], the “encapsulation rate … per 50 μmol of lipid” value is reported as “high”. Further, under setting [1], the “Encapsulated compound content per 50 μmol of lipid” value came to 7.2 mg, the Encapsulation efficiency is 72.1% and the Encapsulation rate was 78.5%.

With `CC(C)N(CC1CCCCN1)C(=O)Oc1cc(O)c2c(=O)cc(-c3ccccc3Cl)oc2c1[C@H]1CCN(C)C[C@H]1O` (stereo partly drawn) [Example 10, 2-(2-chlorophenyl)-5-hydroxy-8-[(3S,4R)-3-hydroxy-1-methylpiperidin-4-yl]-4-oxo-4H-1-benzopyran-7-yl [(piperidin-2-yl)methyl]propan-2-ylcarbamate], under setting [1], the “Encapsulated compound content per 50 μmol of lipid” value is listed as 2.3 mg, the Encapsulation efficiency amounted to 23.0% and the Encapsulation rate is on record as 22.8%.

Take `CN1CC[C@H](c2c(OC(=O)N(CCF)CC3CCCCN3)cc(O)c3c(=O)cc(-c4ccccc4Cl)oc23)[C@H](O)C1` (stereo partly drawn) [Example 11, 2-(2-chlorophenyl)-5-hydroxy-8-[(3S,4R)-3-hydroxy-1-methylpiperidin-4-yl]-4-oxo-4H-1-benzopyran-7-yl (2-fluoroethyl) [(piperidin-2-yl)methyl]carbamate]: under setting [1], the “Encapsulated compound content per 50 μmol of lipid” value is reported as 4.6 mg, the Encapsulation efficiency was 46.1% and the Encapsulation rate stood at 45.5%.

In the case of `COCCN(CC1CCCCN1)C(=O)Oc1cc(O)c2c(=O)cc(-c3ccccc3Cl)oc2c1[C@H]1CCN(C)C[C@H]1O` (stereo partly drawn) [Example 12, 2-(2-chlorophenyl)-5-hydroxy-8-[(3S,4R)-3-hydroxy-1-methylpiperidin-4-yl]-4-oxo-4H-1-benzopyran-7-yl (2-methoxyethyl) [(piperidin-2-yl)methyl]carbamate], under setting [1], the “Encapsulated compound content per 50 μmol of lipid” value turned out to be 3.6 mg, the Encapsulation efficiency was 36.2% and the Encapsulation rate amounted to 35.8%.

As for `CN1CC[C@H](c2c(OC(=O)N(CCC(F)(F)F)CC3CCCCN3)cc(O)c3c(=O)cc(-c4ccccc4Cl)oc23)[C@H](O)C1` (stereo partly drawn) [Example 13, 2-(2-chlorophenyl)-5-hydroxy-8-[(3S,4R)-3-hydroxy-1-methylpiperidin-4-yl]-4-oxo-4H-1-benzopyran-7-yl [(piperidin-2-yl)methyl](3,3,3-trifluoropropyl)carbamate], under setting [1], the “Encapsulated compound content per 50 μmol of lipid” value is on record as 3.5 mg, the Encapsulation efficiency is listed as 34.6% and the Encapsulation rate is 35.2%.
